Tested on: Clostridium difficile
Test: Outbreak of Clostridium difficile hemorrhagic diarrhea in newborn foals; probiotic formulation vs standard of care
Type: in vivo
Conditions: all animals dosed at birth with 6.6 mg/kg
Experimental: Newborn foals born to mares at a large horse breeding barn were monitored during an outbreak of severe hemorrhagic diarrhea among the foals. […] Seventeen foals were born during the initial phase of the outbreak, of which fifteen animals became ill and required intervention according to the standard of care as described in the Merck Veterinary Manual. Standard of care involved metronidazole treatment given at a dose of 15-20 mg/kg, PO, tid-qid. and may also involve administration of large volumes of interveneous polyionic fluids, with supplemental electrolytes (potassium, magnesium, and calcium), plasma or synthetic colloids for low oncotic pressure, anti-inflammatoires such as flunixin meglumine, and broad-spectrum antibiotics if the horse is leukopenic and at risk of bacterial translocation across the compromised GI tract. Polymyxin B may aid in binding systemic endotoxin.
Of these seventeen foals, fifteen developed loose stool or diarrhea lasting 3-4 days, and 2 died as a result of the infection. After observing the outbreak, the next foals were provided a formulation of 3×10^12 CFU Bifidobacterium longum subsp. infantis EVBL001 and 5×10^9 CFU of Lactobacillus plantarum EVLP001 every 12 hours. The two foals that were provided with the formulation at 12 hours of age developed a mild diarrhea, but recovered within 8 hours compared to 3-4 days with standard of care. […]

With CO/N=C(\C(=O)N[C@@H]1C(=O)N2C(C(=O)O)=C(CSC(=O)c3ccco3)CS[C@H]12)c1csc(N)n1 [ceftiofur] the “effect on health outcome related to diarrhea” value was “did not affect health outcome”.

Source: patent publication US20250276026A1, “TRANSIENT COMMENSAL MICROORGANISM FOR IMPROVING GUT HEALTH” (INFINANT HEALTH, INC, priority 2016, published 2025)
